In patent US6310247A, “7-aryl-6(Z)-heptatrienoic acid retinamides” (Hoffmann-LA Roche Inc., priority 1999, dated 2001):
Where two headings read alike, the source gives them in different places.

Key:
[1] = tested on: ER+ and ER- breast carcinoma cells; test: Induction of apoptosis in ER+ and ER- carcinoma cells (statements in words); format: cell-based, human; settings: 24-48 h
Protocol: (§1) 2. Apoptosis: Cell death detection by ELISA:
(§2) Compounds of formula 1 were tested for the ability to cause apoptosis as follows:
(§3) Cells and media were collected, cells were pelleted, resuspended in 100 μl lysis buffer (50 mM Tris-Cl (pH=8.0), 20 mM EDTA, 1% NP-40e) and incubated 30 minutes at 4° C. to lyse. Cell debris was spun down and an aliquot (30 μl) of the […] was removed for protein determination and stored at -20° C. An additional 280 μl of lysis buffer, was added, mixed thoroughly and spun down at 14,000 RPM for 10 minutes at 4° C. An aliquot was removed (180 μl) and the sample was stored at -20° C. until testing.
A commercially available apoptosis detection kit, obtained from Boehringer Mannheim (Cat. No. 1544-674), was used as per the directions provided with the kit (Cell Death Detection ELISA). […] The assay measures apoptosis by quantifying the amount of nucleosomal fragmentation from the extracts of cells treated with the test compounds (samples). […] The resulting colorimetric change is measured spectrophotometrically at 405/490nm.
The total protein content of each sample was determined for the purpose of normalizing the ELISA values to amount of sample loaded. […] The protein concentrations were calculated based upon a linear regression curve. […]
Relative ELISA O.D. readings are determined by subtracting the ELISA plate background O.D. value. […] A correction coefficient (CC), based on the sample protein concentration compared to no drug control, was determined to correct the sample O.D. following subtraction of the background O.D. (BCS O.D.). The fold increase over no drug control is calculated and normalized to the total protein concentration of the samples by multiplying against the correction coefficient. […]
To determine the total protein concentration of the samples, obtain the total protein concentration in mg/ul calculated using standard linear regression formula (y=mx+b) based on BSA standards. […] Protein concentration (PC)(mg/ml)=(sample absorbance-b)/x. […]

H1299 cells = test: Apoptosis: cell death detection by ELISA, H1299 (lung large cell carcinoma); format: cell-based; settings: Homo sapiens, NCI-H1299, read-out: Fold induction of apoptosis compared to no drug control
Protocol: Lung, large cell carcinoma, human (H1299), obtained from ATCC (CRL-5803), were grown in Gibco's Delbecco Minimum Essential media (DMEM), high glucose, supplemented with sodium pyruvate, 10% FBS and 13 ng/mL gentamicin. Cells were incubated at 37° C., 4.5% CO2 and 95.5% humidified air.
as §1, §2, §3
A commercially available apoptosis detection kit, obtained from Boehringer Mannheim (Cat. No. 1544-674), was used as per the directions provided with the kit (Cell Death Detection ELISA). However, the protocol was modified in that a 1:40 to 1:100 dilution of sample was prepared, rather than the recommended 1:10 dilution, due to the increase in cell number used to prepare the sample extract and the subsequent increase in ELISA reactivity. The assay measures apoptosis by quantifying the amount of nucleosomal fragmentation from the extracts of cells treated with the test compounds (samples). These nucleosomal fragments, generated by the activation of endonucleases, are a known downstream effector of apoptosis. Antihistone antibodies are used to fix any nucleosomal fragments in the sample to the well of the microtiter plates. The sample is then incubated with anti-DNA antibodies conjugated to peroxidase and subsequently incubated with the peroxidase substrate, ABTS. The resulting colorimetric change is measured spectrophotometrically at 405/490nm.
The total protein content of each sample was determined for the purpose of normalizing the ELISA values to amount of sample loaded. Microplate assay protocol described in the instruction manual, for (Biorad DC Assay, Cat.#500-0116) section 5.2. The protein concentrations were calculated based upon a linear regression curve.
d) ELISA assay calculations
Relative ELISA O.D. readings are determined by subtracting the ELISA plate background O.D. value. No drug control O.D. value (lysis buffer only) was subtracted from sample O.D. value. A correction coefficient (CC), based on the sample protein concentration compared to no drug control, was determined to correct the sample O.D. following subtraction of the background O.D. (BCS O.D.). The fold increase over no drug control is calculated and normalized to the total protein concentration of the samples by multiplying against the correction coefficient.
To determine the fold increase in ELISA O.D., obtain the following O.D. measurements:
ELISA plate background--lysis buffer only (EPB);
no drug treated control--cell sample treated with DMSO (NDT);
drug treated sample--cell sample treated with a compound of formula 1 (DT) Subtract EPB from NDT (NDT-EPB) and DT (DT-EPB). The fold increase of the treated over the control is then (DT-EPB)/(NDT-EPB).
To determine the total protein concentration of the samples, obtain the total protein concentration in mg/ul calculated using standard linear regression formula (y=mx+b) based on BSA standards. B=ELISA background. Protein concentration (PC)(mg/ml)=(sample absorbance-b)/x.
Correction coefficient (cc) is (NDT)(PC)/(DT)(PC).
Determine fold increase of ELISA (FT) normalized to total PC:
nDT is DT×cc (which is DT O.D. normalized to PC)
nNDT is NDT×cc (which is NDT O.D. normalized to PC)
FI normalized to PC is nDT/nNDT.

ZR-75-1 cells = test: Cell growth inhibition: MTT assay, ZR-75-1 (ER+ breast carcinoma); format: cell-based; settings: Homo sapiens, read-out: % inhibition of cell growth compared to no drug control
Protocol: ER+ breast carcinoma, human (ZR-75-1) obtained from ATCC (CRL 1500), were grown in Gibco's RPMI 1640 media supplemented with sodium pyruvate, 10% FBS and 13 ng/mL gentamicin. Cells were incubated at 37° C., 4.5% CO2 and 95.5% humidified air.
1. Cell growth inhibition: MTT Assay
The compounds of formula 1 were tested for ability to inhibit cell growth using the standard MTT assay, a tetrazolium-based assay which measures the viability of cells in culture. Cells were harvested upon reaching 70-80% confluency and pelleted. The cells were then resuspended in medium in which FBS was replaced with Hyclone's Charcoal/Dextran stripped FBS, and seeded (2 mL/well) into 6-well plates (Corning) at a density allowing for linear growth over a four day assay period. Compounds of formula 1 (10 mM stock in dimethylsulfoxide (DMSO)) were added 18-24 hours post-seeding. Compound dilutions were prepared in the appropriate growth media and added to the cells for final concentrations of 10, 3.3 and 1 μM in 0.1% DMSO. At 24, 48 and 72 hr. time points, MTT (3-[4,5-dimethylthiazol-2-yl-2,5-diphenyltetrazolium bromide) stock solution (5mg/mL in 1 PBS) was added to the cells plates (625 μL/well) which were then incubated for 2.5 hours. Liquid was aspirated from the wells and 1 mL/well of 95% ethanol was added to solubilize the formazan reaction product. The plates were shaken (Bellco Mini-Orbital Shaker) for 15 minutes. The solubilized formazan was then transferred (50 μls) into a 96-well plate and the optical densities (OD) were measured (Bio-Tek Microplate Reader) at 570 nm and reference wavelength of 660 nm. Percentage of inhibition of cell growth was calculated according to the following formula: [formula]

In the case of C/C(=C/C=C/C(C)=C/C(=O)Nc1ccc(O)cc1)c1cc(C(F)(F)F)cc(C(F)(F)F)c1 [N-(4-hydroxyphenyl)-(2E,4E,6Z)-7-[3,5-bis(trifluoromethyl)phenyl]-3,7-dimethyl-2,4,6-heptatrienamide], the “Induction of apoptosis (in words)” value [1] is reported as “significant induction of apoptosis”, the fold induction at 1 µM (H1299 cells; 24 hrs) is reported as 1 and the fold induction at 3.3 µM (H1299 cells; 24 hrs) is reported as 3. For the same compound, the fold induction at 10 µM (H1299 cells; 24 hrs) was 2, the fold induction at 1 µM (H1299 cells; 48 hrs) was 1 and the fold induction at 3.3 µM (H1299 cells; 48 hrs) was 10. It also gave a fold induction at 10 µM (H1299 cells; 48 hrs) of 12, a fold induction at 1 µM (H1299 cells; 72 hrs) of 1 and a fold induction at 3.3 µM (H1299 cells; 72 hrs) of 17. For the same compound, the fold induction at 10 µM (H1299 cells; 72 hrs) was 20, the inhibition at 1 µM (ZR-75-1 cells; 24 hours) was 1% and the inhibition at 3.3 µM (ZR-75-1 cells; 24 hours) was 14%. It also gave an inhibition at 10 µM (ZR-75-1 cells; 24 hours) of 21%, an inhibition at 1 µM (ZR-75-1 cells; 48 hours) of 0% and an inhibition at 3.3 µM (ZR-75-1 cells; 48 hours) of 18%. For the same compound, the inhibition at 10 µM (ZR-75-1 cells; 48 hours) was 30%, the inhibition at 1 µM (ZR-75-1 cells; 72 hours) was 13% and the inhibition at 3.3 µM (ZR-75-1 cells; 72 hours) was 56%. It also gave an inhibition at 10 µM (ZR-75-1 cells; 72 hours) of 64%.
